In patent US6936597B2, “Prodrugs of anticancer agents employing substituted aromatic acids” (priority 2001, dated 2005):

What was measured:
[1] = Half-life in rat plasma, measured by disappearance of PEG derivatives; assay type: in vitro ADME; settings: 37° C., in duplicate, SD ±10%
[2] = tested on: P388/O (murine lymphoid neoplasm) cell line; assay: In vitro bioassay, cell growth by Alamar Blue; assay type: cell-based; settings: P388/O cells, three days, 37° C., in duplicate, SD ±10%
Procedure: A series of in vitro assays were conducted to determine the IC50 for unmodified Ara-C and compound 10 using the P388/O (murine lymphoid neoplasm, Southern Research Institute) cell line. The P388/0 cells were grown in RPMI 1640 medium (Whittaker Bioproducts, Walkersville, Md.)+10% FBS (Hyclone Inc., Logan Utah). Bioassays were performed in their respective media containing antibiotics and fungizone.
Ara-C was dissolved in DMSO and diluted to the appropriate concentration in culture media. The individual PEG-Ara-C compound was dissolved in water and diluted to the appropriate concentrations in culture media.
The assays were performed in duplicate in 96-well microtiter cell culture plates. Two fold serial dilution of the compounds were done in the microtiter plates. Cells were detached by incubating with 0.1% Trypsin/Versene at 37°. Trypsin was inactivated by adding the appropriate media for each cell line containing 10% FBS. To each well of the microtiter plates, 10,000 cells were added. After three days, cell growth was measured by addition of a metabolic indicator dye, Alamar Blue, according to the manufacturer's protocol. The IC50 value for the test compound and reference compound are provided above in the Table.

[3] = tested on: LX-1 (solid human lung Tumor); assay: LX-1 tumor xenograft in athymic nude mice; assay type: in vivo; settings: when control median tumor volume reached 1000 mm^3
Procedure: All PEG conjugated compounds were dissolved (˜15 mg/mL) in sterile saline (0.9%) for injection prior to in vivo drug treatments and were given as their ara-C equivalents (absolute amount of ara-C given).
Athymic nude mice were implanted subcutaneous with a 4-5 mm^3 tissue fragment of LX-1 (solid human lung Tumor) collected from donor mice. The tumor trocar site was observed twice weekly and measured once palpable. The tumor volume for each mouse was determined by measuring two dimensions with calipers and calculated using the formula: tumor volume=(length×width^2)/2. […] The mice were sorted to evenly distribute tumor size, grouped into 4 to 6 mice/group, and ear punched for permanent identification. Drugs were administered intravenously q3d×4 (Day 1, 4, 7 and 10) via the tail vein at an approximate rate of 0.5 mL per minute.

| Molecule | t1/2 (h) Rat Plasma [1] [h] | IC50 [2] [nM] | % Tumor Growth Inhibition ([3]; 20 mg/kg (ara-C equivalents) i.v. q3d×4, LX-1 in nude mice) [%] | % Tumor Growth Inhibition ([3]; 100 mg/kg i.v. q3d×4, LX-1 in nude mice) [%] |
| --- | --- | --- | --- | --- |
| PEG ara-C 4-aminobenzenamide [Compound 6b] | 75 | 1190 | 12.3 | – |
| PEG ara-C 4-aminomethylbenzenamide [Compound 6a] | 65 | 122 | – | – |
| Nc1ccn([C@@H]2O[C@H](CO)[C@@H](O)[C@@H]2O)c(=O)n1 [Ara-C, cytosine arabinoside, reference compound] | – | 10 | – | 26.2 |
